# Reference: PMC7660650, “Chemical Starting Matter for HNF4α Ligand Discovery and Chemogenomics” (International Journal of Molecular Sciences, 2020)
# Values joined by “and” are separate entries in the source; they are usually repeats but may differ in a detail not shown here. Identical values can stand only once.
# Target: T1, Gal4-HNF4α (human HNF4α LBD) (Homo sapiens, UniProt P41235)
# T1 construct: uniprot entry: P41235-1, residues 142-377; expressed in transfected cells; host or cells: HEK293T
# T1 sequence (P41235 142-377): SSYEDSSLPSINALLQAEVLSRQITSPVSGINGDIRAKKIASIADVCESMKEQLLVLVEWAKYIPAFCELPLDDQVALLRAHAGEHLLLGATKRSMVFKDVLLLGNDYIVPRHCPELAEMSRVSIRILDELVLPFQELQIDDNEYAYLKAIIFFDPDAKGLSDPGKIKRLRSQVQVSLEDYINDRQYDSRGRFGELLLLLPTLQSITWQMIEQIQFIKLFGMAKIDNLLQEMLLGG
# Test: Hybrid Gal4-HNF4α reporter gene assay in transiently transfected HEK293T cells
# Assay type: cell-based
# Details: Table S1, primary screening, 50 µM
row,Structure (SMILES),HNF4a-screening_activity_(mean_of_n=2)
1,"Clc1ccc(Cn2cnc3ccccc32)cc1 [Prestw-Frag-1165, Clc1ccc(Cn2cnc3ccccc23)cc1]",0.6294 and 0.7204
2,"COc1ccc(N)nn1 [Prestw-Frag-1167, COc1ccc(N)nn1]",1.35
3,"OC(Cn1ccnc1)c1ccc(Cl)cc1Cl (stereo not drawn) [Prestw-Frag-1182, OC(Cn1ccnc1)c1ccc(Cl)cc1Cl]",1.1
4,"COc1cc2ccncc2cc1OC [Prestw-Frag-1183, COc1cc2ccncc2cc1OC]",1.218
5,"Nc1ccc(Cl)nn1 [Prestw-Frag-1184, Nc1ccc(Cl)nn1]",0.9468
6,"CN1CCC[C@H]1c1cccnc1 [Prestw-Frag-1187, CN1CCC[C@H]1c1cccnc1]",1.172
7,"Cc1c(N)cccc1C(F)(F)F [Prestw-Frag-1189, Cc1c(N)cccc1C(F)(F)F]",1.319
8,"O=C(O)c1cccnc1Nc1ccccc1 [Prestw-Frag-1191, OC(=O)c1cccnc1Nc1ccccc1]",1.24
9,"c1ccc(C(CCN2CCCCC2)c2ccccc2)cc1 [Prestw-Frag-1193, C(CN1CCCCC1)C(c1ccccc1)c1ccccc1]",0.8943 and 1.009
10,"CC(Oc1ccccc1)C(N)=O (stereo not drawn) [Prestw-Frag-1200, CC(Oc1ccccc1)C(N)=O]",0.9571 and 0.9481
11,"CN1CCN(c2nccc(N)n2)CC1 [Prestw-Frag-1204, CN1CCN(CC1)c1nccc(N)n1]",1.248
12,"CS(=O)(=O)c1ccc(N)cc1 [Prestw-Frag-1214, CS(=O)(=O)c1ccc(N)cc1]",1.202
13,"CCCCOc1cc(C(=O)NC)c2ccccc2n1 [Prestw-Frag-1228, CCCCOc1cc(C(=O)NC)c2ccccc2n1]",0.8368 and 0.967
14,"COc1cccc2c1CCCC2=O [Prestw-Frag-1236, COc1cccc2C(=O)CCCc12]",1.287
15,"Oc1ccc(-c2ccc(F)cc2F)cc1 [Prestw-Frag-1237, Oc1ccc(cc1)-c1ccc(F)cc1F]",0.9944
16,"O=C(O)c1cccc(-c2ccc(F)cc2F)c1 [Prestw-Frag-1238, OC(=O)c1cccc(c1)-c1ccc(F)cc1F]",1.01
17,"O=C(O)c1cc(-c2ccc(F)cc2)ccc1O [Prestw-Frag-1239, OC(=O)c1cc(ccc1O)-c1ccc(F)cc1]",1.018 and 1.049
18,"CC(C)C1NCCc2c1[nH]c1ccccc21 (stereo not drawn) [Prestw-Frag-1264, CC(C)C1NCCc2c1[nH]c1ccccc21]",1.008
19,"NC1=NCCN1 [Prestw-Frag-1268, NC1=NCCN1]",1.024
20,"COc1cc2c(cc1OC)C(C)N(C)CC2 (stereo not drawn) [Prestw-Frag-1273, COc1cc2CCN(C)C(C)c2cc1OC]",1.056 and 0.9179
21,"COc1cc2c(cc1OC)CN(C)CC2 [Prestw-Frag-1275, COc1cc2CCN(C)Cc2cc1OC]",0.9717 and 0.8575
22,"COc1cc2c(cc1OC)CNCC2 [Prestw-Frag-1276, COc1cc2CCNCc2cc1OC]",1.117
23,"OCc1cc2ccccc2[nH]1 [Prestw-Frag-1297, OCc1cc2ccccc2[nH]1]",1.241

row,Structure (SMILES),HNF4a-screening_activity_(mean_of_n=2)
1,"CCc1cccc2c(CCO)c[nH]c12 [Prestw-Frag-1299, CCc1cccc2c(CCO)c[nH]c12]",1.255
2,"OCCn1ccnc1 [Prestw-Frag-1303, OCCn1ccnc1]",0.8061 and 1.219
3,"C[C@H]1NC(=O)NC1=O [Prestw-Frag-1311, C[C@H]1NC(=O)NC1=O]",1.09
4,"COc1ccc(C(=O)O)cc1N1CCCC1 [Prestw-Frag-1313, COc1ccc(cc1N1CCCC1)C(O)=O]",1.093
5,"O=C(O)c1ccccc1Nc1cccc(Cl)c1 [Prestw-Frag-1319, OC(=O)c1ccccc1Nc1cccc(Cl)c1]",0.64
6,"Cc1cccc(Nc2ccccc2C(=O)O)c1 [Prestw-Frag-1320, Cc1cccc(Nc2ccccc2C(O)=O)c1]",0.7946 and 1.022
7,"Nc1cccc(C(F)(F)F)c1 [Prestw-Frag-1322, Nc1cccc(c1)C(F)(F)F]",0.9015
8,"Fc1ccc(C(c2ccc(F)cc2)N2CCNCC2)cc1 [Prestw-Frag-1323, Fc1ccc(cc1)C(N1CCNCC1)c1ccc(F)cc1]",1.017 and 1.002
9,"CN1CCN(C(c2ccccc2)c2ccccc2)CC1 [Prestw-Frag-1325, CN1CCN(CC1)C(c1ccccc1)c1ccccc1]",0.9831
10,"COc1ccccc1OCCCO [Prestw-Frag-1335, COc1ccccc1OCCCO]",0.806 and 0.9658
11,"OCC(O)COc1ccccc1 (stereo not drawn) [Prestw-Frag-1337, OCC(O)COc1ccccc1]",0.9566
12,"COc1ccccc1OCCO [Prestw-Frag-1338, COc1ccccc1OCCO]",0.8769 and 0.9665
13,"CCC(C(=O)OCCN(CC)CC)c1ccccc1 (stereo not drawn) [Prestw-Frag-1343, CCC(C(=O)OCCN(CC)CC)c1ccccc1]",0.9028 and 1.004
14,"CCN(CC)CCOc1ccccc1O [Prestw-Frag-1345, CCN(CC)CCOc1ccccc1O]",0.7766 and 1.111
15,"OC(c1ccc(Cl)cc1)c1ccccn1 (stereo not drawn) [Prestw-Frag-1346, OC(c1ccc(Cl)cc1)c1ccccn1]",0.8912
16,"CCOC(=O)C1c2ccccc2Oc2ccccc21 [Prestw-Frag-1348, CCOC(=O)C1c2ccccc2Oc2ccccc12]",0.8228
17,"CNC(=O)c1cnc(C)cn1 [Prestw-Frag-1350, CNC(=O)c1cnc(C)cn1]",0.7205 and 0.8855
18,"CNCCc1c[nH]c2ccccc12 [Prestw-Frag-1356, CNCCc1c[nH]c2ccccc12]",0.7184 and 0.9553
19,"COc1ccc(CNc2ncccn2)cc1 [Prestw-Frag-1358, COc1ccc(CNc2ncccn2)cc1]",0.8945 and 1.199
20,"O=C1COc2ccccc21 [Prestw-Frag-1361, O=C1COc2ccccc12]",1.58
21,"OC1(c2ccc(Cl)cc2)CCNCC1 [Prestw-Frag-1365, OC1(CCNCC1)c1ccc(Cl)cc1]",0.8125
22,"CCCC(=O)c1ccc(F)cc1 [Prestw-Frag-1368, CCCC(=O)c1ccc(F)cc1]",1.103
23,"COc1ccc2cc[nH]c2c1 [Prestw-Frag-1372, COc1ccc2cc[nH]c2c1]",1.02

row,Structure (SMILES),HNF4a-screening_activity_(mean_of_n=2)
1,"Oc1ccc2cc[nH]c2c1 [Prestw-Frag-1374, Oc1ccc2cc[nH]c2c1]",1.128
2,"O=C(OC1CCCCC1)c1ccccc1O [Prestw-Frag-1382, Oc1ccccc1C(=O)OC1CCCCC1]",0.9579 and 1.189
3,"NCC(O)COc1cccc2ccccc12 (stereo not drawn) [Prestw-Frag-1389, NCC(O)COc1cccc2ccccc12]",0.8528 and 1.218
4,"NS(=O)(=O)c1ccccc1C(F)(F)F [Prestw-Frag-1394, NS(=O)(=O)c1ccccc1C(F)(F)F]",0.846
5,"c1cc2c(cc1CN1CCNCC1)OCO2 [Prestw-Frag-1397, C(N1CCNCC1)c1ccc2OCOc2c1]",1.012
6,"c1cnc(N2CCNCC2)nc1 [Prestw-Frag-1398, C1CN(CCN1)c1ncccn1]",1.074 and 0.9138
7,"COC(=O)C(CO)c1ccccc1 (stereo not drawn) [Prestw-Frag-1406, COC(=O)C(CO)c1ccccc1]",0.9811 and 0.9479
8,"Cc1c[nH]nc1C [Prestw-Frag-1408, Cc1c[nH]nc1C]",1.108
9,"NNC(=O)c1ccncc1 [Prestw-Frag-1419, NNC(=O)c1ccncc1]",0.9909
10,"NNC(=O)c1ccccc1 [Prestw-Frag-1420, NNC(=O)c1ccccc1]",1.278
11,"c1cnc2[nH]ncc2c1 [Prestw-Frag-1428, c1n[nH]c2ncccc12]",1.325
12,"NC(=O)c1ccccc1O [Prestw-Frag-1439, NC(=O)c1ccccc1O]",1.146
13,"c1ccc(-c2ccccc2-c2nnn[nH]2)cc1 [Prestw-Frag-1441, c1ccc(cc1)-c1ccccc1-c1nnn[nH]1]",1.051 and 0.7815
14,"c1ccc(CC2NCCc3ccccc32)cc1 (stereo not drawn) [Prestw-Frag-1444, C(C1NCCc2ccccc12)c1ccccc1]",1.349
15,"COc1ccc(CCN(C)C)cc1OC [Prestw-Frag-1445, COc1ccc(CCN(C)C)cc1OC]",1.047 and 0.984
16,"CNCCc1ccc(OC)c(OC)c1 [Prestw-Frag-1446, CNCCc1ccc(OC)c(OC)c1]",1.187 and 1.106
17,"CCN(CC)Cc1cc(N)ccc1O [Prestw-Frag-1462, CCN(CC)Cc1cc(N)ccc1O]",1.135
18,"c1ccc(CNc2ccccn2)cc1 [Prestw-Frag-1475, C(Nc1ccccn1)c1ccccc1]",1.278
19,"CN(C)CCNCc1ccccc1 [Prestw-Frag-1476, CN(C)CCNCc1ccccc1]",1.113
20,"CC(=O)NCCc1c[nH]c2ccccc12 [Prestw-Frag-1478, CC(=O)NCCc1c[nH]c2ccccc12]",1.089
21,"COc1ccc2[nH]cc(CCN)c2c1 [Prestw-Frag-1480, COc1ccc2[nH]cc(CCN)c2c1]",1.025 and 1.119
22,"Nc1c(Cl)ccc2nsnc12 [Prestw-Frag-1492, Nc1c(Cl)ccc2nsnc12]",1.089
23,"Cc1cnc(C(=O)O)cn1 [Prestw-Frag-1494, Cc1cnc(cn1)C(O)=O]",0.7971 and 1.166
